Measured values taken from BigSolDB 2.1.

C[C@@H](O)[C@H]1C(=O)N2C(C(=O)[O-])=C(SC3Cn4cnc[n+]4C3)[C@H](C)[C@H]12 (stereo partly drawn)
solubility (mole fraction)
Details | in DMF | in DMSO | in NMP | in acetone | in acetonitrile | in ethanol | in ethyl acetate | in isopropanol | in methanol | in n-propanol
283.15 K | 5.8e-05 | – | 7.58e-05 | 1.77e-06 | 3.63e-05 | 1.49e-05 | 5.21e-05 | 6.66e-06 | 1.86e-05 | 1.17e-05
288.15 K | 6.44e-05 | – | 8.14e-05 | 2.51e-06 | 4.07e-05 | 1.76e-05 | 5.73e-05 | 8.24e-06 | 2.19e-05 | 1.37e-05
293.15 K | 7.11e-05 | 7.86e-05 | 8.79e-05 | 3.4e-06 | 4.61e-05 | 2.09e-05 | 6.48e-05 | 9.98e-06 | 2.59e-05 | 1.62e-05
298.15 K | 7.8e-05 | 8.66e-05 | 9.66e-05 | 4.57e-06 | 5.17e-05 | 2.46e-05 | 7.16e-05 | 1.2e-05 | 3.07e-05 | 1.97e-05
303.15 K | 8.72e-05 | 9.47e-05 | 0.000106 | 5.97e-06 | 5.82e-05 | 2.9e-05 | 7.97e-05 | 1.41e-05 | 3.57e-05 | 2.32e-05
308.15 K | 9.65e-05 | 0.000104 | 0.000117 | 8.13e-06 | 6.67e-05 | 3.41e-05 | 8.9e-05 | 1.69e-05 | 4.18e-05 | 2.7e-05
313.15 K | 0.000107 | 0.000116 | 0.000128 | 1.06e-05 | 7.46e-05 | 3.97e-05 | 9.93e-05 | 2e-05 | 4.9e-05 | 3.19e-05
318.15 K | 0.000119 | 0.000129 | 0.000141 | 1.39e-05 | 8.5e-05 | 4.54e-05 | 0.000111 | 2.37e-05 | 5.63e-05 | 3.71e-05
323.15 K | 0.000131 | 0.000142 | 0.000156 | 1.79e-05 | 9.56e-05 | 5.23e-05 | 0.000123 | 2.79e-05 | 6.61e-05 | 4.32e-05
